# Test results published in ChEMBL document CHEMBL5214967, “Natural Product-Inspired Targeted Protein Degraders: Advances and Perspectives” (J Med Chem, 2022).
# Columns and labels:
# [1] = molecular target: T1, 3-hydroxy-3-methylglutaryl-coenzyme A reductase (Homo sapiens, UniProt P04035); assay: Degradation of HMGCR (unknown origin) expressed in CHO-7 cells; type: cell-based
# T1 sequence (P04035 whole entry): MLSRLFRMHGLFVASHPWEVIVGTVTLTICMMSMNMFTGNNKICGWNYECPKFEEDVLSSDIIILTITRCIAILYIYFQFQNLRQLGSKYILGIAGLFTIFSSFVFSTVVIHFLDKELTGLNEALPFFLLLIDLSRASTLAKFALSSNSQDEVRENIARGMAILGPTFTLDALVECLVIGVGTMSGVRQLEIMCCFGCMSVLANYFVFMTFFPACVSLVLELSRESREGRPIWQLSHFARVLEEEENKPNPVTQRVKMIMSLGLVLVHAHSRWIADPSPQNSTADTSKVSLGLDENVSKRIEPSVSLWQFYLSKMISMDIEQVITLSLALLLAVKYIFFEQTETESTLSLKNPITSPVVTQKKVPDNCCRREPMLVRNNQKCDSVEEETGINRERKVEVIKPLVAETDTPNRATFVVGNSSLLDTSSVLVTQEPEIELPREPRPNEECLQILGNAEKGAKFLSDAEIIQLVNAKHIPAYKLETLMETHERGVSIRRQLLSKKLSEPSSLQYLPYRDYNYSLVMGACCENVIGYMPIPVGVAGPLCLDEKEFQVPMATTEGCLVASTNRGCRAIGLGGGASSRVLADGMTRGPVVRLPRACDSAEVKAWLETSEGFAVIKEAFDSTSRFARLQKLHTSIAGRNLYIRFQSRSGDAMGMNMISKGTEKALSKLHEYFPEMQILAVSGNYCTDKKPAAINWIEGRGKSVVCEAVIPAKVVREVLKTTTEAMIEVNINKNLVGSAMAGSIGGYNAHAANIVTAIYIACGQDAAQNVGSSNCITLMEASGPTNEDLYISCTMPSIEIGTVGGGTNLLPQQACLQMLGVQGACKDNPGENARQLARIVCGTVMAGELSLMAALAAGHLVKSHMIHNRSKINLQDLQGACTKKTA
# [2] = molecular target: T2, Kelch-like ECH-associated protein 1/Bromodomain-containing protein 4 (Homo sapiens, UniProt O60885+Q14145); assay: PROTAC activity at Keap1/BRD4 in human MDA-MB-231 cells assessed as degradation of BRD4 measured after 10 hrs; type: cell-based
# [3] = molecular target: T2, Kelch-like ECH-associated protein 1/Bromodomain-containing protein 4; assay: PROTAC activity at Keap1/BRD4 in human MDA-MB-231 cells assessed as degradation of BRD4 measured after 5 hrs; type: cell-based
# [4] = molecular target: von Hippel-Lindau disease tumor suppressor/Estrogen receptor (Homo sapiens, UniProt P03372+P40337); assay: PROTAC activity at VHL/ERalpha in human MCF7 cells assessed as degradation of ERalpha; type: cell-based
# [5] = molecular target: von Hippel-Lindau disease tumor suppressor/G-protein coupled estrogen receptor 1 (Homo sapiens, UniProt Q99527+P40337); assay: PROTAC activity at VHL/GPER (unknown origin) assessed as degradation of GPER; type: protein assay
# MCF7 = assay: Cytotoxicity against human MCF7 cells by inducing cell cycle arrest incubated for 30 mins measured by FacScallibur flow cytometric analysis; type: functional, cell-based; conditions: MCF7, 0.5 h
# SK-BR-3 = assay: Cytotoxicity against human SK-BR-3 cells by inducing cell cycle arrest incubated for 30 mins measured by FacScallibur flow cytometric analysis; type: functional, cell-based; conditions: SK-BR-3, 0.5 h
# [6] = Degradation of ER in human MCF7 cells; type: cell-based
# [7] = molecular target: E3 ubiquitin-protein ligase RNF114 (Homo sapiens, UniProt Q9Y508); assay: Inhibition of RNF114 (unknown origin)
# [8] = molecular target: E3 ubiquitin-protein ligase RNF114/Bromodomain-containing protein 4 (Homo sapiens, UniProt O60885+Q9Y508); assay: PROTAC activity at RNF114/BRD4 (unknown origin) assessed as degradation of BRD4 incubated for 30 mins SDS-PAGE based fluorescence analysis
# [9] = molecular target: von Hippel-Lindau disease tumor suppressor/3-hydroxy-3-methylglutaryl-coenzyme A reductase (Homo sapiens, UniProt P04035+P40337); assay: PROTAC activity at VHL/HMGCR in human HepG2 cells assessed as degradation of HMGCR measured at 1 uM after 16 hrs relative to control; type: cell-based
# [10] = molecular target: T1, 3-hydroxy-3-methylglutaryl-coenzyme A reductase; assay: Inhibition of HMGCR (unknown origin)
# A549 [11] = assay: Cytotoxicity against human A549 cells incubated for 24 hrs by MTT assay; type: functional, cell-based; conditions: A549, 24 h
# Huh-7 [12] = assay: Cytotoxicity against human Huh-7 cells incubated for 24 hrs by MTT assay; type: functional, cell-based; conditions: Huh-7, 24 h
# HepG2 [13] = assay: Cytotoxicity against human HepG2 cells incubated for 24 hrs by MTT assay; type: functional, cell-based; conditions: HepG2, 24 h
# [14] = molecular target: Protein cereblon/E3 ubiquitin-protein ligase Mdm2 (Homo sapiens) (UniProt Q00987+Q96SW2); assay: PROTAC activity at CRBN/MDM2 (unknown origin) assessed as degradation of MDM2 relative to control; type: protein assay
# A549 [15] = assay: Cytotoxicity against human A549 cells measured after 24 hrs by MTT assay; type: functional, cell-based; conditions: A549, 24 h
# Huh-7 [16] = assay: Cytotoxicity against human Huh-7 cells measured after 24 hrs by MTT assay; type: functional, cell-based; conditions: Huh-7, 24 h
# HepG2 [17] = assay: Cytotoxicity against human HepG2 cells measured after 24 hrs by MTT assay; type: functional, cell-based; conditions: HepG2, 24 h
# [18] = molecular target: T3, Protein cereblon/Protein deacetylase HDAC6 (Homo sapiens, UniProt Q9UBN7+Q96SW2); assay: PROTAC activity at CRBN/HDAC6 (unknown origin) assessed as degradation of HDAC6; type: protein assay
# Target sequence in this assay (Q9UBN7 whole entry): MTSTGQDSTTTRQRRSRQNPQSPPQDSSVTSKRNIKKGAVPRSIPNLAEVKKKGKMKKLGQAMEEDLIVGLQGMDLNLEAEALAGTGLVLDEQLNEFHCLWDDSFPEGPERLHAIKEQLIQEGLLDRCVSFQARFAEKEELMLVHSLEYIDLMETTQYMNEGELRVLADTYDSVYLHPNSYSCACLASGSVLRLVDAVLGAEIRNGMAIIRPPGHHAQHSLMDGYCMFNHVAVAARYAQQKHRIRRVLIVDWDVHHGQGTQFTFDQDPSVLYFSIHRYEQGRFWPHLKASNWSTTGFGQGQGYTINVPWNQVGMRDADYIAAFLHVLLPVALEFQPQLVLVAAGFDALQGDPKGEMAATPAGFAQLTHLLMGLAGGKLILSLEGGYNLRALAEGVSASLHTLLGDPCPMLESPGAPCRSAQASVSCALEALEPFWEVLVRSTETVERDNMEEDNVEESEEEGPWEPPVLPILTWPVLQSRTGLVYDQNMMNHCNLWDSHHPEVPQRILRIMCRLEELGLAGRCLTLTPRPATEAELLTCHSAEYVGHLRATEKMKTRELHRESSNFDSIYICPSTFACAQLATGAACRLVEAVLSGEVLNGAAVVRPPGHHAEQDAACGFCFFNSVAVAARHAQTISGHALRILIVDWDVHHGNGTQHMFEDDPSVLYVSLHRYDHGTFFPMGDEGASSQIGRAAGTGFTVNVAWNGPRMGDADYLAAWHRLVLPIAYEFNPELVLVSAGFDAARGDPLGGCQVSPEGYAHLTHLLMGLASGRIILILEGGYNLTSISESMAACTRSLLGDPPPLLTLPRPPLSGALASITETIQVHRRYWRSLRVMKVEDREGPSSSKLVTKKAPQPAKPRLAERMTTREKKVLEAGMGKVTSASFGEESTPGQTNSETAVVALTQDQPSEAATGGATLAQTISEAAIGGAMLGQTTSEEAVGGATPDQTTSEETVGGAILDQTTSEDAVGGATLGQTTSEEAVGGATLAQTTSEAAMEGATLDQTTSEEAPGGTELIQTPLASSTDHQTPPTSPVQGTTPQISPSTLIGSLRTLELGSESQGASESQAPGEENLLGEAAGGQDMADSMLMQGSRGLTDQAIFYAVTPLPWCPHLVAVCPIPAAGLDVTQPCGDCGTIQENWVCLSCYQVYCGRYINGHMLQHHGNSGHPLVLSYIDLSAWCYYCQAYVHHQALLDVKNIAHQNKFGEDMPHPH
# Target sequence in this assay (Q96SW2 whole entry): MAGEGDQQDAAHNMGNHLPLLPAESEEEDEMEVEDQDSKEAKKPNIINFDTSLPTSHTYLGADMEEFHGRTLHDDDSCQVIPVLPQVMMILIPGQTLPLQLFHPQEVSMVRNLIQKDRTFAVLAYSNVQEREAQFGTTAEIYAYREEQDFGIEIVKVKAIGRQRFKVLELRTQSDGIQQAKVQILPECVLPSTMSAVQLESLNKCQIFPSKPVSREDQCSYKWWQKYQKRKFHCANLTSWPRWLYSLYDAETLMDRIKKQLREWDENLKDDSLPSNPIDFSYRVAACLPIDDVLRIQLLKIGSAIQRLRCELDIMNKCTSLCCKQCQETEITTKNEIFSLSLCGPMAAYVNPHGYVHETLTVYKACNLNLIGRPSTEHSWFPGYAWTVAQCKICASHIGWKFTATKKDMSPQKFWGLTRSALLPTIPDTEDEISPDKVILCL
# [19] = molecular target: T3, Protein cereblon/Protein deacetylase HDAC6; assay: PROTAC activity at CRBN/HDAC6 (unknown origin) assessed as degradation of HDAC6 relative to control; type: protein assay
# Target sequence in this assay (Q96SW2 whole entry, looked up): as the sequence (Q96SW2 whole entry) above
# Target sequence in this assay (Q9UBN7 whole entry, looked up): as the sequence (Q9UBN7 whole entry) above
# Chain of von Hippel-Lindau disease tumor suppressor/Estrogen receptor (P03372 whole entry): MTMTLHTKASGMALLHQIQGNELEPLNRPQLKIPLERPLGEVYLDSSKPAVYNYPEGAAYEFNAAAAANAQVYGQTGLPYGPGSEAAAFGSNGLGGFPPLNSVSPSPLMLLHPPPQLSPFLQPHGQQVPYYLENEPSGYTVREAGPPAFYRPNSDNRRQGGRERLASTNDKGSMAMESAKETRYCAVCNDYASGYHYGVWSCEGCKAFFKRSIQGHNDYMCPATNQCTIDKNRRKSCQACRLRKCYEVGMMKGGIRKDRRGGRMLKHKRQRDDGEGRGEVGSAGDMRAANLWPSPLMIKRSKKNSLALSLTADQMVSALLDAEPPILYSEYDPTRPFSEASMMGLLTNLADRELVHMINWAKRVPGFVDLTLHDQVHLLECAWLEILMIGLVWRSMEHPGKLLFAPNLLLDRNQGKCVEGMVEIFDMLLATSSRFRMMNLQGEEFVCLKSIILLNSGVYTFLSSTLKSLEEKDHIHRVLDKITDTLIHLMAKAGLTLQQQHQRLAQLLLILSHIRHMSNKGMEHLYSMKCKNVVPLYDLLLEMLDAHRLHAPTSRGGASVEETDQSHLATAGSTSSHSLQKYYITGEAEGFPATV
# Chain of von Hippel-Lindau disease tumor suppressor/Estrogen receptor (P40337 whole entry): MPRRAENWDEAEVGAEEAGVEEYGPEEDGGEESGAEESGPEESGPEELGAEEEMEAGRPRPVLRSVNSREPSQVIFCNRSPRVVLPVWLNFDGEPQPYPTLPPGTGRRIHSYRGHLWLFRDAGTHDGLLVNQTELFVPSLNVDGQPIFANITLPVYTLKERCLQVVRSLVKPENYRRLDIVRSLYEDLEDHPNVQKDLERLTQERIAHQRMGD
# Chain of von Hippel-Lindau disease tumor suppressor/G-protein coupled estrogen receptor 1 (Q99527 whole entry): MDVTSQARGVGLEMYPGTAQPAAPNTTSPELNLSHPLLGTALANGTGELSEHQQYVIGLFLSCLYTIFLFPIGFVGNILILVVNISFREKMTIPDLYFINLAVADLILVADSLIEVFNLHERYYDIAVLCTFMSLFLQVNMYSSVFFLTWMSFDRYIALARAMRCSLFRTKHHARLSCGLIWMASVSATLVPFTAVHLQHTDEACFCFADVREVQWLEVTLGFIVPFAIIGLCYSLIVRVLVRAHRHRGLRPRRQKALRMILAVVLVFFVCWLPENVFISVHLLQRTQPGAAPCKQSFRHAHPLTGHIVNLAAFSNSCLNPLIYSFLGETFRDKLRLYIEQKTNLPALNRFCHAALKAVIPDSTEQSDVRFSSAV
# Chain of von Hippel-Lindau disease tumor suppressor/G-protein coupled estrogen receptor 1 (P40337 whole entry): as the sequence (P40337 whole entry) above
# T2 sequence (Q14145 whole entry, looked up, other chains not shown): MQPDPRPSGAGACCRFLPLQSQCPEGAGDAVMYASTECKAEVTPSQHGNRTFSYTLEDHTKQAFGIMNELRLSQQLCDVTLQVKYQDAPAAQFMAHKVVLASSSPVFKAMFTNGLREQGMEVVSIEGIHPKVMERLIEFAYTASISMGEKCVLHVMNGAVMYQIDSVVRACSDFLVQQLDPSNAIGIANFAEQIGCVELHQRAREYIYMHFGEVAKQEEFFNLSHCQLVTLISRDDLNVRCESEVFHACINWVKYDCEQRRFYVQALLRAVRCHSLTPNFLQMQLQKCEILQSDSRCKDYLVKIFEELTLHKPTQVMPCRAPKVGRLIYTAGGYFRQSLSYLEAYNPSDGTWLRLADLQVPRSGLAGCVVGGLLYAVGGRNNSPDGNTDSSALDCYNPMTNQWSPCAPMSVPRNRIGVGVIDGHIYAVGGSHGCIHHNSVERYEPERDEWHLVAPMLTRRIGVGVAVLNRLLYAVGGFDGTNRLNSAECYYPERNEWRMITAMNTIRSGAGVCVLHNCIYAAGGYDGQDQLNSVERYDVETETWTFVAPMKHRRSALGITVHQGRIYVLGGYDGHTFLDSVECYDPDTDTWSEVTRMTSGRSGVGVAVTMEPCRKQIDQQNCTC
# Chain of von Hippel-Lindau disease tumor suppressor/3-hydroxy-3-methylglutaryl-coenzyme A reductase (P40337 whole entry, looked up, one chain of several): as the sequence (P40337 whole entry) above
# Chain of E3 ubiquitin-protein ligase RNF114 (Q9Y508 whole entry): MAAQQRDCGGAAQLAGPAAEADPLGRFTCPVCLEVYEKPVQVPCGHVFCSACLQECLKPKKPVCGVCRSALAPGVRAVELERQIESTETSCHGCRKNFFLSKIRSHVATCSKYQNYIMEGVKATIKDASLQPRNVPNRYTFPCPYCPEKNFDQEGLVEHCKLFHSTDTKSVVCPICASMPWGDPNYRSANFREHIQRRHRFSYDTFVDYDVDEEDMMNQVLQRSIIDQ
# Chain of E3 ubiquitin-protein ligase RNF114/Bromodomain-containing protein 4 (Q9Y508 whole entry, looked up, other chains not shown): as the sequence (Q9Y508 whole entry) above
# Chain of Protein cereblon/E3 ubiquitin-protein ligase Mdm2 (Homo sapiens) (Q00987 whole entry, looked up): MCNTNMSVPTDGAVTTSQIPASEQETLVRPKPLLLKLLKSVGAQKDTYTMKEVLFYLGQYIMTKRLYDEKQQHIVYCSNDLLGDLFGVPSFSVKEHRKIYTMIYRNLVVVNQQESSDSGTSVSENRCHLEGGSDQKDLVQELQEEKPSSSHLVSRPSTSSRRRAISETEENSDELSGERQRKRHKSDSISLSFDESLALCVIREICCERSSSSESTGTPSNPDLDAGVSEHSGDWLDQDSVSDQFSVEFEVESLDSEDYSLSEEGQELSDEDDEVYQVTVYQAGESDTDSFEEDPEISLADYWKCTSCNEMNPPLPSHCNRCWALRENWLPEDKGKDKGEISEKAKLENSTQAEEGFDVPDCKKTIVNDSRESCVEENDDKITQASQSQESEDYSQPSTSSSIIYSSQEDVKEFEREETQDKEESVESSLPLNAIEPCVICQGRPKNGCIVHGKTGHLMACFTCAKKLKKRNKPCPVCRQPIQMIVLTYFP
# Chain of Protein cereblon/E3 ubiquitin-protein ligase Mdm2 (Homo sapiens) (Q96SW2 whole entry, looked up): as the sequence (Q96SW2 whole entry) above
smiles,measurement,setting,value
C=CCC(O)(CC=C)CCC[C@@H](C)[C@H]1CC[C@H]2[C@@H]3[C@@H](O)C=C4C(C)(C)[C@@H](O)CC[C@]4(C)[C@H]3CC[C@]12C,DC50,[1],390 nM
CC1=C(O)C(=O)C=C2C1=CC=C1[C@@]2(C)CC[C@@]2(C)[C@@H]3C[C@](C)(C(=O)NCCCOCCOCCOCCCNC(=O)C[C@@H]4N=C(c5ccc(Cl)cc5)c5c(sc(C)c5C)-n5c(C)nnc54)CC[C@]3(C)CC[C@]12C,DC50,[2],9.6 nM
same,DC50,[3],29 nM
Cc1ncsc1-c1ccc(CNC(=O)[C@@H]2C[C@@H](O)CN2C(=O)[C@@H](NC(=O)COCCOCCOCCOCC(=O)O[C@H]2CC[C@H]3[C@@H]4CCc5cc(O)ccc5[C@H]4CC[C@]23C)C(C)(C)C)cc1,DC50,[4],10000 nM
same,DC50,[5],100000 nM
same,IC50,MCF7,9000 nM
same,IC50,SK-BR-3,10900 nM
CC1=CC(=O)[C@H]2/C(C=O)=C\C[C@H]3[C@@H]([C@@H](C)/C=C\C=C/C(=O)OCCOCCOCCOC(=O)CC45CC6CC(CC(C6)C4)C5)CC[C@]3(C)C[C@H]12,DC50,[6],1000 nM
COC(=O)C[C@H]1[C@]2(C)C3=C(C)C(c4ccoc4-c4ccc(C(=O)NCCCNC(=O)C[C@@H]5N=C(c6ccc(Cl)cc6)c6c(sc(C)c6C)-n6c(C)nnc65)cc4)C[C@H]3C[C@@H]2[C@@H]2OC(=O)[C@]3(C)C=CC(=O)[C@@]1(C)[C@@H]23 (stereo not given in full),IC50,[7],240 nM
same,DC50,[8],10 nM
Cc1ncsc1-c1ccc(CNC(=O)[C@@H]2C[C@@H](O)CN2C(=O)[C@H](NC(=O)CCCCCCCCCCNC(=O)OC2C[C@@H](C)C=C3C=C[C@H](C)[C@H](CC[C@@H]4C[C@@H](O)CC(=O)O4)[C@H]32)C(C)(C)C)cc1 (stereo not given in full),Emax,[9],56%
same,IC50,[10],1300 nM
C[C@H]1[C@H](C)CCC2(C(=O)NCCOCCOCCOCCNc3cccc4c3C(=O)N(C3CCC(=O)NC3=O)C4=O)CC[C@]3(C)C(=CC[C@@H]4[C@@]5(C)CCC(O)C(C)(C)[C@@H]5CC[C@]43C)[C@H]12 (stereo not given in full),IC50,A549 [11],230 nM
same,IC50,Huh-7 [12],230 nM
same,IC50,HepG2 [13],230 nM
same,Emax,[14],75%
same,IC50,A549 [15],230 nM
same,IC50,Huh-7 [16],390 nM
same,IC50,HepG2 [17],380 nM
O=C(CCCO/N=C1/C(=C2/C(=O)N(Cc3cn(CCOCCNc4cccc5c4C(=O)N(C4CCC(=O)NC4=O)C5=O)nn3)c3ccccc32)Nc2ccccc21)NO (stereo not given),DC50,[18],109 nM
same,Emax,[19],88%
Cc1ncsc1-c1ccc(CNC(=O)[C@@H]2C[C@@H](O)CN2C(=O)[C@@H](NC(=O)COCCOCCOCCOCC(=O)NCCOCCOCCOCCOCCOCCOCCOCCOCCC(=O)O[C@H]2CC[C@H]3[C@@H]4CCc5cc(O)ccc5[C@H]4CC[C@]23C)C(C)(C)C)cc1,DC50,[4],10000 nM
same,DC50,[5],100000 nM
same,IC50,MCF7,17000 nM
same,IC50,SK-BR-3,11100 nM
